Measured values reported in publication PMC10070186, “Unusual peptide-binding proteins guide pyrroloindoline alkaloid formation in crocagin biosynthesis” (Nature Chemistry, 2023).
Entries after “also recorded” stand apart in the source; their conditions may differ.

Legend:
[1] = test system: CgnE; test: ICP-MS iron binding to CgnE; design: species or system Chondromyces crocatus CM c5; details: 5 mM fresh FeCl2, 30 min, PD10 desalting
Experimental: Inductively Couple Plasma-Mass Spectrometry
Experimental solutions were analysed using an Agilent 7500ce fitted with a self-aspire nebuliser tuned for a flow of 0.1 mL min-1 at the Scottish Universities Environmental Research Centre (SUERC).
Samples were initially diluted to a protein concentration of 2 µM in 0.8 M HNO3. CgnB was dialyzed 4 x for 1 h at a dilution of 1 : 5000 in buffer containing 100 mM EDTA prior to analysis. CgnE was incubated with freshly prepared FeCl2 for 30 min (5 mM final FeCl2 concentration) and then subjected to a PD10 desalting column in CgnE buffer before the protein was diluted in HNO3 for analysis. For Fe2+ analysis, flow in the collision cell was set to 2 mL min -1 of H. The metal concentration was calculated by reference to a three -standard calibration line. Each sample value was corrected for procedural blank containing ultrapure water and 0.8 M HNO 3.
CgnB and CgnE sequences were compared with TBLA STN[22] to whole-genome shotgun contigs of taxa listed in (Supplementary table 4). We have retrieved the corresponding genome segments and identified tandem appearances of homologous genes, as well as searched for candidate peptides in their genomic neigh borhood with custom Python and Perl scripts. Phylogenetic trees were constructed with RAxML[23] using the PROTGAMMAJTT model. Bootstrap values were computed using 100 bootstrap […]

[2] = test system: CsrA; details: in vitro; cited from earlier work
Description: Their biosynthesis begins with the ribosomal expression of a short gene to yield a precursor peptide that usually consists of an N-terminal ‘leader’ and a C-terminal ‘core’ peptide. While the leader peptide is important for substrate recognition by the enzyme(s) installing class-defining modifications, the core peptide is ultimately converted into the final product and can be extensively modified[17]–[19]. Fe ...

[3] = test system: CgnD; test: Labeling of CgnD with PMSF (LC-MS); assay type: biochemical, Chondromyces crocatus CM c5; details: 10 µM CgnD, 10-fold excess PMSF, room temperature, 10 min
Experimental: All structural images portrayed were rendered in PyMOL (The PyMOL Molecular Graphics System Version 1.8.6.0, Schrödinger, LLC).
Purified, lyophilized 3a/b (see above) was dissolved in 20 mM sodium phosphate pH 7.2 containing 5%
D2O. A similar sample of unmodified CgnA was analyzed for comparison. 1D 1H, 2D {1H,1H} NOESY, TOCSY and DQF-COSY and 2D {13C,1H} HSQC spectra were recorded for each sample on a Bruker AVANCE IIIHD/Ultrashield 600 spectrometer equipped with a TCI cryoprobe using Bruker TopSpin 3.5 software. After excluding peaks from unmodified CgnA in the modified sample, the assignments of the C-terminal residues of the modified CgnA species were made using COSY, TOCSY and inter - residue NOE cross peaks using CCPNMR analysis assign v3. 13C shifts were identified from the HSQC spectra where sensitivity allowed. The majority of the expected resonances were easily identified, but the near-degeneracy of the former tyrosine Hα and Hβ shifts meant that the nOe cross peaks required to identify the stereochemistry at the tyrosine Cβ were not resolved. Indeed, the observation of two separate […]
Phenylmethylsulfonylfluoride (PMSF) can selectively modifying the catalytic serine of serine hydrolases via the formation of a covalent bond with the protein and can therefore be detected even in denaturing LC-MS conditions by a positive mass shift corresponding to the compound[21]. […]

[4] = test system: CgnB, CgnC and CgnE; test: In vitro processing of CgnA and variants by CgnB, CgnC and CgnE (LC-MS); assay type: biochemical, Chondromyces crocatus CM c5
Experimental: All biochemical reactions were performed in 150 mM NaCl, 10 mM HEPES, 0.5 mM TCEP, pH 7.4. For CgnA–CgnB–CgnC reactions, a mixture of 50 µM CgnA, 10 µM CgnB, 5 µM CgnC, 4 mM ascorbic acid, 2.5 mM FeCl2 and 1 mM 2-oxoglutaric acid was incubated at 37 °C for 2 h. For CgnA–CgnB–CgnC–CgnE reactions, a mixture of 50 µM CgnA, 10 µM CgnB, 5 µM CgnC, 5 µM CgnE, 4 mM ascorbic acid, 2.5 mM FeCl2 and 1 mM 2-oxoglutaric acid was incubated at 37 °C for 2 h. The standard reaction volume was 50 µl. Proteins were precipitated by adding 50% acetonitrile and freezing the mixture at −80 °C for 2 h prior to liquid chromatography and mass spectrometry (LC-MS) analysis.

[5] = test system: CgnB; test: MST binding of CgnA (or leader peptide) to CgnB; design: species or system Chondromyces crocatus CM c5
Experimental: (§1) Supplementary Figure 13: Analysis of protein complexes using SEC and MST. a MST measurements to determine KDs of the protein pairs given. X/Y – Affinity of fluorescently labeled X to Y (titrated). + Z: Z was supplied at a constant, high concentration. […]
(§2) Both samples were incubated at room temperature for 10 min prior to LC-MS analysis.
(§3) Microscale Thermophoresis
(§4) MST binding affinity measurements were performed using a Monolith NT 115 system (Nanotemper Technologies) with MO.Control v1.6 software. Labeling of different proteins was performed using the Monolith Labeling Kit RED-NHS 2nd generation according to the manufacturer’s instructions. For this, a 10 µM dilution of the desired protein was prepared in the supplied labeling buffer NHS (130 mM NaHCO3, 50 mM NaCl, pH 8.2). To yield a 600 μM dye solution, 25 μL DMSO was added to dry powder. For the labeling procedure, 7 μL of the freshly prepared dye solution was mixed with 7 μL of […]

[6] = biological target: CgnC; test: MST binding of CgnA to CgnC; design: species or system Chondromyces crocatus CM c5; details: CgnC titrated
Sequence of CgnC (as listed by the source): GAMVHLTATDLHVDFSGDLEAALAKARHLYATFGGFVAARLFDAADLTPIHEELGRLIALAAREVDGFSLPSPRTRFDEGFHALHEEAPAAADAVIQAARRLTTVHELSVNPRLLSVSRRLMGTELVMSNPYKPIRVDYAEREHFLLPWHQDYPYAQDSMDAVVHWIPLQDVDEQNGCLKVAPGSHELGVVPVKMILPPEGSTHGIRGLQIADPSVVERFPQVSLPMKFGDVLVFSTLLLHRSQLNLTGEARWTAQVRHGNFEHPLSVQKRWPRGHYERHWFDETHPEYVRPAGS
Experimental: as §1, §2, §3, §4

[7] = biological target: CgnE; test: MST binding of CgnA (or leader peptide) to CgnE; design: species or system Chondromyces crocatus CM c5
Experimental: as §1, §2, §3, §4
Target sequence in this assay (as listed by the source): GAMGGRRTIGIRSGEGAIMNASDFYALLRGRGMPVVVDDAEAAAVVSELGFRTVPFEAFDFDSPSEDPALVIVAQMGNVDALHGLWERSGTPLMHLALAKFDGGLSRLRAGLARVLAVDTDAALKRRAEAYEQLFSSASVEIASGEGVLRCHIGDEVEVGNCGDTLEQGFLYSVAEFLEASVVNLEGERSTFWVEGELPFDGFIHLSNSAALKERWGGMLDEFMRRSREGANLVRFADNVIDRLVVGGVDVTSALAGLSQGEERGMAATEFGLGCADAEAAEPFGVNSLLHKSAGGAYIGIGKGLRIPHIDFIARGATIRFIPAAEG

[8] = biological target: CgnD; test: MST binding to CgnD; design: species or system Chondromyces crocatus CM c5; details: microscale thermophoresis
Target sequence in this assay (as listed by the source): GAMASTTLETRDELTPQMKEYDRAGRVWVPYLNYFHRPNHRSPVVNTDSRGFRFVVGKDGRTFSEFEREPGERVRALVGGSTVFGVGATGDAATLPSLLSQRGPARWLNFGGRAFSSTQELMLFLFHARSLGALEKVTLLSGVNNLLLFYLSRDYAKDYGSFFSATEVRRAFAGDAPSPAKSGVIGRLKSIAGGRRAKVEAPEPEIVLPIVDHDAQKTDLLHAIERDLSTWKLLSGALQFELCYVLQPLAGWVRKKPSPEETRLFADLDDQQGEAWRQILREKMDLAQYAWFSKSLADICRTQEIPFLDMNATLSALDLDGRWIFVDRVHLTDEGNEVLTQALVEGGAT

[Cl][Fe][Cl] [FeCl2]
iron bound to CgnE [1]: No iron could be detected

CC[C@H](C)[C@H](NC)C(=O)N[C@@H]1C(=O)N2[C@H](C(=O)O)[C@@H](OC(N)=O)[C@@H]3c4ccccc4N([C@@H]1c1ccc(O)cc1)[C@@H]32 [compound 1, crocagin A]
inhibition of CsrA [2]: inhibits

O=S(=O)(F)Cc1ccccc1 [phenylmethylsulfonyl fluoride]
covalent labeling of CgnD [3]: inability to label CgnD

Ile-Tyr-Trp [core peptide, three-amino-acid core peptide of CgnA (Ile-Tyr-Trp for crocagin)]
turnover of the core peptide with leader peptide in trans ([4]; CgnB–CgnC–CgnE reaction, leader peptide added in trans): marginal

MTMKKTIKQISAGDRSKKGNIYW [CgnA]
CgnA–CgnB interaction relative to CgnA–CgnE ([5]; MST KD 10.5 vs 1.8 µM): five times weaker | CgnA–CgnB KD relative to SPR value ([5]; MST vs surface plasmon resonance of ref 24): approximately one order of magnitude lower | Kd ([5]; MST, Monolith NT 115, RED-NHS label, CgnB titrated, three independent samples, mean ± SD, read-out: KD (affinity) of CgnA–CgnB): 10.5 µM | affinity of CgnA–CgnB in presence of CgnE ([5]; MST, CgnE 250 µM constant, CgnB titrated): No binding; also recorded: we did not observe binding | affinity of CgnA–CgnC [6]: No binding; also recorded: not CgnC, were able to bind CgnA | Kd ([7]; Monolith NT 115, for CgnA: CgnE titrated, three independent samples, mean ± SD, read-out: KD (affinity) to CgnE): 1800 nM | weaker binding to CgnE than CgnA ([7]; leader peptide vs CgnA): ~300 times | binding to CgnD [8]: unable to detect binding | processing by CgnB, CgnC and CgnE (product formation/turnover) ([4]; 50 µM CgnA, 10 µM CgnB, 5 µM CgnC, 5 µM CgnE, 4 mM ascorbic acid, 2.5 mM FeCl2, 1 mM 2-oxoglutaric acid, pH 7.4, 37 °C, 2 h, LC-MS): formation of a major product with high turnover; also recorded: consumption of CgnA (magenta) and the formation of a major product (+14 Da, blue) as well as minor products (+16 Da, green; +30 Da | product formation with CgnB and CgnC ([4]; 50 µM CgnA, 10 µM CgnB, 5 µM CgnC, cofactors, 37 °C, 2 h): two additional product peaks detected when compared to CgnA–CgnE or CgnA–CgnC reactions | product formation with CgnC and CgnE ([4]; CgnA + CgnC + CgnE with cofactors): formation of an additional, minor peak with a mass shift of +28 Da | product formation with CgnC and cofactors ([4]; CgnA + CgnC + FeCl2, ascorbic acid, α-ketoglutarate): a new peak with a mass suggestive of hydroxylation (+16 Da), but the predominant peak remained unmodified CgnA; also recorded: formation of a minor +16 Da species | product formation with CgnC, no cofactors ([4]; CgnA + CgnC without FeCl2, ascorbic acid and α-ketoglutarate): did not lead to observable product formation | product formation without CgnC ([4]; CgnA with CgnB, CgnE or both, LC-MS): did not result in any observable product peak
